tested on: HIV-1 (HIVIIIB) replication in MT2 cell line; experiment: HIV-1 replication in MT2 cell line with and without 30% human serum (viral RT activity in supernatant); format: cell-based; conditions: Human immunodeficiency virus 1, MT2 cells, with 30% human serum, average IC50 if tested more than once, read-out: MT2 (HIVIIIB) with HS 30% IC50 range
How it was run: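 MT2 cells infected with HIV-1 IIIB at MOI 0.5 for 3 h, washed, seeded at 0.5×10^6/ml in RPMI/10% FBS with serially diluted compound, with or without 30% human serum; medium and compound refreshed on day 3. RT activity in supernatant at day 5; IC50 and IC90 derived.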

`Cc1nnc(C(=O)N[C@@]23CC[C@]4(C)[C@H](CC[C@@H]5[C@@]6(C)CC[C@H](OC(=O)CC(C)(C)C(=O)O)C(C)(C)[C@@H]6CC[C@]54C)C2=C(C(C)C)C(=O)C3)o1` [19-4, 3β-O-(3′,3′-Dimethylsuccinyl)-17β-(5-methyl-[1,3,4]oxadiazole-2-amido)-21-oxolup-18-ene] and `Cc1nc(C(=O)N[C@@]23CC[C@]4(C)C(CCC5[C@@]6(C)CC[C@H](OC(=O)CC(C)(C)C(=O)O)C(C)(C)C6CC[C@]54C)C2=C(C(C)C)C(=O)C3)no1` (stereo partly drawn) [19-68, 3β-O-(3′,3′-Dimethylsuccinyl)-17β-(5-methyl-[1,2,4]oxadiazole-3-amido)-21-oxolup-18-ene] cannot be ordered by IC50: less than 0.199 µM for the first, less than 0.199 µM for the second.

`CC(C)C1=C2[C@H]3CC[C@@H]4[C@@]5(C)CC[C@H](OC(=O)CC(C)(C)C(=O)O)C(C)(C)[C@@H]5CC[C@@]4(C)[C@]3(C)CC[C@@]2(NC(=O)N2CCOCC2)CC1=O` [17-13, 3β-O-(3′,3′-Dimethylsuccinyl)-17β-[(morpholine-4-carbonyl)-amino]-21-oxolup-18-ene] and `CC(C)C1=C2[C@H]3CC[C@@H]4[C@@]5(C)CC[C@H](OC(=O)CC(C)(C)C(=O)O)C(C)(C)[C@@H]5CC[C@@]4(C)[C@]3(C)CC[C@@]2(NC(=O)N2CCN(C)CC2)CC1=O` [17-16, 3β-O-(3′,3′-Dimethylsuccinyl)-17β-[(4-methyl-piperazine-1-carbonyl)-amino]-21-oxolup-18-ene] cannot be ordered by IC50: less than 0.199 µM for the first, less than 0.199 µM for the second.

`CC(C)C1=C2[C@H]3CC[C@@H]4[C@@]5(C)CC[C@H](OC(=O)CC(C)(C)C(=O)O)C(C)(C)[C@@H]5CC[C@@]4(C)[C@]3(C)CC[C@@]2(NC(=O)Nc2ccccn2)CC1=O` [17-25, 3β-O-(3′,3′-Dimethylsuccinyl)-17β-(N′-pyridin-2-yl-ureido)-21-oxolup-18-ene] and `CC(C)C1=C2C3CCC4[C@@]5(C)CC[C@H](OC(=O)CC(C)(C)C(=O)O)C(C)(C)C5CC[C@@]4(C)[C@]3(C)CC[C@@]2(NC(=O)NC2(c3ccccn3)CC2)CC1=O` (stereo partly drawn) [17-69, 3β-O-(3′,3′-Dimethylsuccinyl)-17β-[N′-(1-pyridin-2-yl-cyclopropyl)-ureido]-21-oxolup-18-ene] cannot be ordered by IC50: less than 0.199 µM for the first, less than 0.199 µM for the second.

`CC(C)C1=C2C3CCC4[C@@]5(C)CC[C@H](OC(=O)CC(C)(C)C(=O)O)C(C)(C)C5CC[C@@]4(C)[C@]3(C)CC[C@@]2(NC(=O)N(C)C(C)C)CC1=O` (stereo partly drawn) [17-18, 3β-O-(3′,3′-Dimethylsuccinyl)-17β-[N′-isopropyl-N′-methyl-ureido]-21-oxolup-18-ene] and `CC(C)C1=C2C3CCC4[C@@]5(C)CC[C@H](OC(=O)CC(C)(C)C(=O)O)C(C)(C)C5CC[C@@]4(C)[C@]3(C)CC[C@@]2(NC(=O)NC2CC2)CC1=O` (stereo partly drawn) [17-22, 3β-O-(3′,3′-Dimethylsuccinyl)-17β-(N′-cyclopropyl-ureido)-21-oxolup-18-ene] cannot be ordered by IC50: less than 0.199 µM for the first, less than 0.199 µM for the second.

`CC(C)C1=C2C3CCC4[C@@]5(C)CC[C@H](OC(=O)CC(C)(C)C(=O)O)C(C)(C)C5CC[C@@]4(C)[C@]3(C)CC[C@@]2(NC(=O)Cn2ccnc2)CC1=O` (stereo partly drawn) [19-60, 3β-O-(3′,3′-Dimethylsuccinyl)-17β-(1-imidazole-acetamido)-21-oxolup-18-ene] and `CC(C)C1=C2[C@H]3CC[C@@H]4[C@@]5(C)CC[C@H](OC(=O)CC(C)(C)C(=O)O)C(C)(C)[C@@H]5CC[C@@]4(C)[C@]3(C)CC[C@@]2(NC(=O)c2ccn(C)n2)CC1=O` [19-17, 3β-O-(3′,3′-Dimethylsuccinyl)-17β-(1-methyl-1H-pyrazole-3-amido)-21-oxolup-18-ene] cannot be ordered by IC50: less than 0.199 µM for the first, less than 0.199 µM for the second.

`CC(C)C1=C2C3CCC4[C@@]5(C)CC[C@H](OC(=O)CC(C)(C)C(=O)O)C(C)(C)C5CC[C@@]4(C)[C@]3(C)CC[C@@]2(NC(=O)c2cncnc2)CC1=O` (stereo partly drawn) [19-23, 3β-O-(3′,3′-Dimethylsuccinyl)-17β-(pyrimidine-5-amido)-21-oxolup-18-ene] and `CC(C)C1=C2[C@H]3CC[C@@H]4[C@@]5(C)CC[C@H](OC(=O)CC(C)(C)C(=O)O)C(C)(C)[C@@H]5CC[C@@]4(C)[C@]3(C)CC[C@@]2(NC(=O)c2cccnc2)CC1=O` [19-8, 3β-O-(3′,3′-Dimethylsuccinyl)-17β-(pyridin-3-yl)amido-21-oxolup-18-ene] cannot be ordered by IC50: less than 0.199 µM for the first, less than 0.199 µM for the second.

`CC(C)C1=C2[C@H]3CC[C@@H]4[C@@]5(C)CC[C@H](OC(=O)CC(C)(C)C(=O)O)C(C)(C)[C@@H]5CC[C@@]4(C)[C@]3(C)CC[C@@]2(NC(=O)c2cccs2)CC1=O` [19-20, 3β-O-(3′,3′-Dimethylsuccinyl)-17β-(2-thiophene)amido-21-oxolup-18-ene] and `CC(C)C1=C2C3CCC4[C@@]5(C)CC[C@H](OC(=O)CC(C)(C)C(=O)O)C(C)(C)C5CC[C@@]4(C)[C@]3(C)CC[C@@]2(NC(=O)c2cscn2)CC1=O` (stereo partly drawn) [19-27, 3β-O-(3′,3′-Dimethylsuccinyl)-17β-(1,3-thiazole-4-amido)-21-oxolup-18-ene] cannot be ordered by IC50: less than 0.199 µM for the first, less than 0.199 µM for the second.

First: CC(C)C1=C2C3CCC4[C@@]5(C)CC[C@H](OC(=O)CC(C)(C)C(=O)O)C(C)(C)C5CC[C@@]4(C)[C@]3(C)CC[C@@]2(NC(=O)OC2CCN(C)CC2)CC1=O (stereo partly drawn) [20-17, 3β-O-(3′,3′-Dimethylsuccinyl)-17β-(1-methylpiperidine-4-oxycarbonylamino)-21-oxolup-18-ene]
Second: CC(C)C1=C2C3CCC4[C@@]5(C)CC[C@H](OC(=O)CC(C)(C)C(=O)O)C(C)(C)C5CC[C@@]4(C)[C@]3(C)CC[C@@]2(NC(=O)NCC2CCN(C)CC2)CC1=O (stereo partly drawn) [17-28, 3β-O-(3′,3′-Dimethylsuccinyl)-17β-[N′-(1-methyl-piperidin-4-ylmethyl)-ureido]-21-oxolup-18-ene]
The IC50 of the first is lower: less than 0.199 µM for the first, greater than 1 µM for the second.

`Cc1nnc(C(=O)N(C)[C@@]23CC[C@]4(C)[C@H](CC[C@@H]5[C@@]6(C)CC[C@H](OC(=O)CC(C)(C)C(=O)O)C(C)(C)[C@@H]6CC[C@]54C)C2=C(C(C)C)C(=O)C3)o1` [19-69, 3β-O-(3′,3′-Dimethylsuccinyl)-17β-[methyl-(5-methyl-[1,3,4]oxadiazole-2-carbonyl)-amino]-21-oxolup-18-ene] and `Cc1cc(NC(=O)N[C@@]23CC[C@]4(C)[C@H](CC[C@@H]5[C@@]6(C)CC[C@H](OC(=O)CC(C)(C)C(=O)O)C(C)(C)[C@@H]6CC[C@]54C)C2=C(C(C)C)C(=O)C3)ccn1` [17-47, 3β-O-(3′,3′-Dimethylsuccinyl)-17β-(N′-2-methylpyridin-4-yl-ureido)-21-oxolup-18-ene] cannot be ordered by IC50: less than 0.199 µM for the first, less than 0.199 µM for the second.

`CC(C)C1=C2C3CCC4[C@@]5(C)CC[C@H](OC(=O)CC(C)(C)C(=O)O)C(C)(C)C5CC[C@@]4(C)[C@]3(C)CC[C@@]2(NC(=O)[C@H]2CCCN2C(=O)OC(C)(C)C)CC1=O` (stereo partly drawn) [19-58] and `CC(=O)N1CCC(C(=O)N[C@@]23CC[C@]4(C)[C@H](CC[C@@H]5[C@@]6(C)CC[C@H](OC(=O)CC(C)(C)C(=O)O)C(C)(C)[C@@H]6CC[C@]54C)C2=C(C(C)C)C(=O)C3)CC1` [19-7, 3β-O-(3′,3′-Dimethylsuccinyl)-17β-(1-acetylpiperidine-4-amido)-21-oxolup-18-ene] cannot be ordered by IC50: less than 0.199 µM for the first, less than 0.199 µM for the second.

`CC(C)C1=C2[C@H]3CC[C@@H]4[C@@]5(C)CC[C@H](OC(=O)CC(C)(C)C(=O)O)C(C)(C)[C@@H]5CC[C@@]4(C)[C@]3(C)CC[C@@]2(NC(=O)c2ccc(F)cc2)CC1=O` [19-13, 3β-O-(3′,3′-Dimethylsuccinyl)-17β-(4-fluorobenzamido)-21-oxolup-18-ene] and `Cc1cccc(C(=O)N[C@@]23CC[C@]4(C)[C@H](CC[C@@H]5[C@@]6(C)CC[C@H](OC(=O)CC(C)(C)C(=O)O)C(C)(C)[C@@H]6CC[C@]54C)C2=C(C(C)C)C(=O)C3)c1` [19-44, 3β-O-(3′,3′-Dimethylsuccinyl)-17β-(3-methylbenzamido)-21-oxolup-18-ene] cannot be ordered by IC50: less than 0.199 µM for the first, less than 0.199 µM for the second.

`CC(C)C1=C2C3CCC4[C@@]5(C)CC[C@H](OC(=O)CC(C)(C)C(=O)O)C(C)(C)C5CC[C@@]4(C)[C@]3(C)CC[C@@]2(NC(=O)Cc2ccccc2)CC1=O` (stereo partly drawn) [19-29, 3β-O-(3′,3′-Dimethylsuccinyl)-17β-phenylacetamido-21-oxolup-18-ene] and `Cc1ccccc1C(=O)N[C@@]12CC[C@]3(C)[C@H](CC[C@@H]4[C@@]5(C)CC[C@H](OC(=O)CC(C)(C)C(=O)O)C(C)(C)[C@@H]5CC[C@]43C)C1=C(C(C)C)C(=O)C2` [19-45, 3β-O-(3′,3′-Dimethylsuccinyl)-17β-(2-methylbenzamido)-21-oxolup-18-ene] cannot be ordered by IC50: less than 0.199 µM for the first, less than 0.199 µM for the second.

First: CNC1CCN(C(=O)N[C@@]23CC[C@]4(C)C(CCC5[C@@]6(C)CC[C@H](OC(=O)CC(C)(C)C(=O)O)C(C)(C)C6CC[C@]54C)C2=C(C(C)C)C(=O)C3)CC1 (stereo partly drawn) [17-39, 3β-O-(3′,3′-Dimethylsuccinyl)-17β-[(4-methylamino-piperidine-1-carbonyl)-amino]-21-oxolup-18-ene]
Second: CC(C)C1=C2C3CCC4[C@@]5(C)CC[C@H](OC(=O)CC(C)(C)C(=O)O)C(C)(C)C5CC[C@@]4(C)[C@]3(C)CC[C@@]2(NC(=O)N2CC[C@H](N)C2)CC1=O (stereo partly drawn) [17-43, 3β-O-(3′,3′-Dimethylsuccinyl)-17β-[((S)-3-amino-pyrrolidine-1-carbonyl)-amino]-21-oxolup-18-ene]
The IC50 of the first is higher: 0.2 to 0.999 µM for the first, less than 0.199 µM for the second. The second is the more potent here.

`CC(C)C1=C2C3CCC4[C@@]5(C)CC[C@H](OC(=O)CC(C)(C)C(=O)O)C(C)(C)C5CC[C@@]4(C)[C@]3(C)CC[C@@]2(NC(=O)OCCC2CC2)CC1=O` (stereo partly drawn) [20-22, 3β-O-(3′,3′-Dimethylsuccinyl)-17β-(2-cyclopropyl-1-ethoxycarbonylamino)-21-oxolup-18-ene] and `CC(C)C1=C2C3CCC4[C@@]5(C)CC[C@H](OC(=O)CC(C)(C)C(=O)O)C(C)(C)C5CC[C@@]4(C)[C@]3(C)CC[C@@]2(NC(=O)c2nnc(-c3ccccc3)o2)CC1=O` (stereo partly drawn) [19-63, 3β-O-(3′,3′-Dimethylsuccinyl)-17β-(5-phenyl-[1,3,4]oxadiazole-2-amido)-21-oxolup-18-ene] cannot be ordered by IC50: less than 0.199 µM for the first, less than 0.199 µM for the second.

same assay, conditions: Human immunodeficiency virus 1, MT2 cells, without human serum, average IC50 if tested more than once, read-out: MT2 (HIVIIIB) IC50 range

`Cc1nnc(C(=O)N[C@@]23CC[C@]4(C)[C@H](CC[C@@H]5[C@@]6(C)CC[C@H](OC(=O)CC(C)(C)C(=O)O)C(C)(C)[C@@H]6CC[C@]54C)C2=C(C(C)C)C(=O)C3)o1` [19-4, 3β-O-(3′,3′-Dimethylsuccinyl)-17β-(5-methyl-[1,3,4]oxadiazole-2-amido)-21-oxolup-18-ene] and `CC(C)C1=C2C3CCC4[C@@]5(C)CC[C@H](OC(=O)CC(C)(C)C(=O)O)C(C)(C)C5CC[C@@]4(C)[C@]3(C)CC[C@@]2(NC(=O)c2cncnc2)CC1=O` (stereo partly drawn) [19-23, 3β-O-(3′,3′-Dimethylsuccinyl)-17β-(pyrimidine-5-amido)-21-oxolup-18-ene] cannot be ordered by IC50: less than 0.199 µM for the first, less than 0.199 µM for the second.

`CC(C)C1=C2[C@H]3CC[C@@H]4[C@@]5(C)CC[C@H](OC(=O)CC(C)(C)C(=O)O)C(C)(C)[C@@H]5CC[C@@]4(C)[C@]3(C)CC[C@@]2(NC(=O)c2ccc(F)cc2)CC1=O` [19-13, 3β-O-(3′,3′-Dimethylsuccinyl)-17β-(4-fluorobenzamido)-21-oxolup-18-ene] and `CC(C)C1=C2[C@H]3CC[C@@H]4[C@@]5(C)CC[C@H](OC(=O)CC(C)(C)C(=O)O)C(C)(C)[C@@H]5CC[C@@]4(C)[C@]3(C)CC[C@@]2(NC(=O)c2cccnc2)CC1=O` [19-8, 3β-O-(3′,3′-Dimethylsuccinyl)-17β-(pyridin-3-yl)amido-21-oxolup-18-ene] cannot be ordered by IC50: less than 0.199 µM for the first, less than 0.199 µM for the second.

With `CC(=O)N1CCC(C(=O)N[C@@]23CC[C@]4(C)[C@H](CC[C@@H]5[C@@]6(C)CC[C@H](OC(=O)CC(C)(C)C(=O)O)C(C)(C)[C@@H]6CC[C@]54C)C2=C(C(C)C)C(=O)C3)CC1` [19-7, 3β-O-(3′,3′-Dimethylsuccinyl)-17β-(1-acetylpiperidine-4-amido)-21-oxolup-18-ene] the IC50 was less than 0.199 µM.
